pKi: −log10 of the molar value. Structures can show the parent of a compound that is named as a salt.
Assays:
[1] = molecular target: T1, human norepinephrine transporter (Homo sapiens, UniProt P23975); assay: hNET receptor binding ([125I]-RTI-55 radioligand binding, membranes of transfected HEK-293 cells); details: 50 pM [125I]-RTI-55, HEK-293 cell membranes, 90 min at room temperature; IC50 converted to Ki by Cheng-Prusoff equation
T1 construct: host or cells: HEK-293
Description: The ability of the compounds of this invention to bind to the hNET and serotonin SERT receptor can be determined using conventional radioligand receptor binding assays. The receptors can be heterologously expressed in cell lines and experiments conducted in membrane preparations from the cell lines using procedures outlined below. IC50 concentrations can be determined by nonlinear regression of concentration-dependent reduction in specific binding. The Cheng-Prussoff equation can be used to convert the IC50 to Ki concentrations.
Cell pastes of HEK-293 cells transfected with the human norepinephrine transporter were supplied by the Pfizer Ann Arbor Protein Expression and Production group. Pellets were resuspended in 400 to 700 ml of Krebs-HEPES assay buffer (25 mM HEPES, 122 mM NaCl, 3 mM KCl, 1.2 mM MgSO4, 1.3 mM CaCl2, and 11 mM glucose, pH 7.4) with a Polytron homogenizer at setting 7 for 30 sec. Aliquots of membranes (5 mg/ml protein) were stored in liquid nitrogen until used.
The binding assay was set up in Beckman deep-well polypropylene plates with a total volume of 250 μl containing: drug (10^−5M to 10^−12M), cell membranes, and 50 pM [^125I]-RTI-55 (Perkin Elmer, NEX-272; specific activity 2200 Ci/mmol). The reaction was incubated by gentle agitation for 90 min at room temperature and was terminated by filtration through Whatman GF/C filter plates using a Brandel 96-well plate harvester. Scintillation fluid (100 μl) was added to each well, and bound [^125I]-RTI-55 was determined using a Wallac Trilux Beta Plate Counter. Test compounds were run in duplicate, and specific binding was defined as the difference between binding in the presence and absence of 10 μM desipramine.
Excel and GraphPad Prism software were used for data calculation and analysis. IC50 values were converted to Ki values using the Cheng-Prusoff equation.

T1 sequence (P23975 whole entry): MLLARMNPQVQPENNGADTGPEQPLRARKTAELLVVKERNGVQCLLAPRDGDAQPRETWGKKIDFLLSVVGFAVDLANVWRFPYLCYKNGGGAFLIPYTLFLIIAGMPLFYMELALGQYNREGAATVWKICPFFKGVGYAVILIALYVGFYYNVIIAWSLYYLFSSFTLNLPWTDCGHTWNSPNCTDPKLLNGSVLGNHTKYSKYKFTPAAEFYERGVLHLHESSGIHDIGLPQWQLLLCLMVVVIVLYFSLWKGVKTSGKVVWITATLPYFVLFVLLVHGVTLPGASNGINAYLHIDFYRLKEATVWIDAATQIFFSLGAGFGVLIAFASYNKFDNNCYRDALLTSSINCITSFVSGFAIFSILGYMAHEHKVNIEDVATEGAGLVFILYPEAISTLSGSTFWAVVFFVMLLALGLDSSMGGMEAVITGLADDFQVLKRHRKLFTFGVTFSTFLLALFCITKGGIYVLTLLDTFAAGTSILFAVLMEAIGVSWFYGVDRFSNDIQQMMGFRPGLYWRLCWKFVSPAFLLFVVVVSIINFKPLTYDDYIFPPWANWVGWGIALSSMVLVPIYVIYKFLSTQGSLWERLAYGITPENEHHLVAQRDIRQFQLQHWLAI

pKi [1] | melting point | Compound
 | 199 to 200 °C | Cc1ccc(-n2c(=O)c(N3CCCNCC3)nc3ccccc32)cc1 (as salt: maleate) [Example 13, 3-[1,4]Diazepan-1-yl-1-p-tolyl-1H-quinoxalin-2-one Maleate]
7.57 | 151 to 152 °C | O=c1c(N2CCCNCC2)nc2cc(F)ccc2n1-c1ccccc1 [Example 14, 3-[1,4]Diazepan-1-yl-6fluoro-1-phenyl-1H-quinoxalin-2-one]
7.39 |  | O=c1c(N2CCCNCC2)nc2ccccc2n1-c1ccccc1Cl [Example 11, 1-(2-Chloro-phenyl)-3-[1,4]diazepan-1-yl-1H-quinoxalin-2-one Maleate]
 | 147 to 149 °C | CC(C)n1c(=O)c(N2CCCNCC2)nc2ccccc21 (as salt: maleate) [Example 15, 3-[1,4]Diazepan-1-yl-1-isopropyl-1H-quinoxalin-2-one Maleate]
7.15 |  | CC(C)n1c(=O)c(N2CCCNCC2)nc2ccccc21 [Example 15, 3-[1,4]Diazepan-1-yl-1-isopropyl-1H-quinoxalin-2-one Maleate]
7.22 | 128 to 129 °C | O=c1c(N2CCCNCC2)nc2ccccc2n1-c1cccc(F)c1 [Example 12, 3-[1,4]Diazepan-1-yl-1-(3-fluoro-phenyl)-1H-quinoxalin-2-one]
7.01 |  | Cc1ccc(-n2c(=O)c(N3CCCNCC3)nc3ccccc32)cc1 [Example 13, 3-[1,4]Diazepan-1-yl-1-p-tolyl-1H-quinoxalin-2-one Maleate]
 | 159 to 161 °C | O=c1c(N2CCCNCC2)nc2ccccc2n1-c1ccccc1Cl (as salt: maleate) [Example 11, 1-(2-Chloro-phenyl)-3-[1,4]diazepan-1-yl-1H-quinoxalin-2-one Maleate]

Second part, the molecule before the results:

Compound | pKi [1] | melting point
O=c1c(N2CCNCC2)nc2cc(F)ccc2n1-c1c(F)cccc1F [Example 10, 1-(2,6-Difluoro-phenyl)-6-fluoro-3-piperazin-1-yl-1H-quinoxalin-2-one] | 7.82 | 146 to 147 °C
Cc1ccc(-n2c(=O)c(N3CCNCC3)nc3ccccc32)cc1 [Example 7, 3-Piperazin-1-yl-1-p-tolyl-1H-quinoxalin-2-one Maleate] | 7.44 | 
O=c1c(N2CCNCC2)nc2ccccc2n1-c1ccccc1F [Example 3, 1-(2-Fluoro-phenyl)-3-piperazin-1-yl-1H-quinoxalin-2-one Hydrochloride] | 7.96 | 
O=c1c(N2CCNCC2)nc2ccccc2n1-c1ccccc1Cl [Example 4, 1-(2-Chloro-phenyl)-3-piperazin-1-yl-1H-quinoxalin-2-one] | 7.36 | 135 to 137 °C
O=c1c(N2CCNCC2)nc2cc(F)ccc2n1-c1ccccc1 [Example 1, 6-Fluoro-1-phenyl-3-piperazin-1-yl-1H-quinoxalin-2-one] | 7.92 | 150 to 152 °C
O=c1c(N2CCNCC2)nc2ccc(F)cc2n1-c1ccccc1 [Example 8, 7-Fluoro-1-phenyl-3-piperazin-1-yl-1H-quinoxalin-2-one] | 7.23 | 142 to 143 °C
O=c1c(N2CCNCC2)nc2ccccc2n1-c1cccc(F)c1 [Example 6, 1-(3-Fluoro-phenyl)-3-piperazin-1-yl-1H-quinoxalin-2-one] | 7.42 | 149 to 150 °C
O=c1c(N2CCNCC2)nc2ccccc2n1-c1ccccc1 (as salt: hydrochloride) [Example 2, 1-Phenyl-3-piperazin-1-yl-1H-quinoxalin-2-one Hydrochloride] |  | 290 to 292 °C
Cc1ccc2nc(N3CCNCC3)c(=O)n(-c3ccccc3)c2c1 [Example 9, 7-Methyl-1-phenyl-3-piperazin-1-yl-1H-quinoxalin-2-one] | 7.09 | 166 to 168 °C
Cc1ccccc1-n1c(=O)c(N2CCNCC2)nc2ccccc21 [Example 5, 3-Piperazin-1-yl-1-o-tolyl-1H-quinoxalin-2-one] | 7.16 | 151 to 153 °C
O=c1c(N2CCNCC2)nc2ccccc2n1-c1ccccc1F (as salt: hydrochloride) [Example 3, 1-(2-Fluoro-phenyl)-3-piperazin-1-yl-1H-quinoxalin-2-one Hydrochloride] |  | 261 to 263 °C
Cc1ccc(-n2c(=O)c(N3CCNCC3)nc3ccccc32)cc1 (as salt: maleate) [Example 7, 3-Piperazin-1-yl-1-p-tolyl-1H-quinoxalin-2-one Maleate] |  | 197 to 199 °C
O=c1c(N2CCNCC2)nc2ccccc2n1-c1ccccc1 [Example 2, 1-Phenyl-3-piperazin-1-yl-1H-quinoxalin-2-one Hydrochloride] | 7.68 | 

Reference: patent US20060030566A1, “Novel quinoxalinone norepinephrine reuptake inhibitors for the treatment of central nervous system disorders” (Warner-Lambert Company, LLC, priority 2004, published 2006)
